According to patent US10351566B2, “Therapeutic compounds for pain and synthesis thereof” (priority 2015, dated 2019):
Where “and” joins values, the source holds several entries; their conditions need not be identical. Identical values can stand only once. Like-named read-outs stand apart in the source and are kept apart here.

How the values were obtained:
in vitro = in vitro ADME; conditions: 1 μM, read-out: plasma protein bound (converted)
Method: The plasma protein binding assay for Formula 1 was conducted in mouse and human plasma at a single concentration of 1 μM using the method of equilibrium dialysis. […] The plasma protein binding of the compound is acceptable.

[1] = system: Taxol-induced neuropathic pain; assay: Taxol-induced neuropathic pain in the rat, per oral; format: in vivo; conditions: Taxol rats
Method: Study outline in brief: Taxol was administered daily for a period of 17 days (day 0 to day 16). On day 16, the withdrawal force was evaluated using the von Fey test. The animals experienced a reduction of more than 60% in the withdrawal force following repeated Taxol dosing. After a single treatment with Formula 1 at a dose of 50 mg/kg, a full reversal was recorded, i.e. the withdrawal force was similar to the values recorded prior to Taxol dosing commencement. The duration of the analgesic activity was at least 6 h.

[2] = in vivo
Source text: Formula 1 was discovered following a comprehensive Senerga® Phenotypic screening.

14-3-3σ = 14-3-3σ expression in plasma and hind paw skin of Taxol dosed mice (Somascan); format: in vivo
Method: The Taxol model was used in order to investigate the MoA of Formula 1.
Animals showing chemotherapy-induced pain following repeated doses of taxol were treated with either vehicle gabapentin or Formula 1. Plasma was collected following the first dose of the test items and after 7 days of daily treatment. Skin from hind paws were also collected following 7 days of daily treatment. The tissues were processed and the expression levels on 1310 proteins were assessed (Somascan provided by SomaLogic, Inc., Boulder, Colo.).
Three statistical methods were used to identify protein expression that discriminated between Formula 1, gabapentin and vehicle on day 8, following a single dose, and on study day 14 following multiple dosing.
A comparison between day 8 and day 14 within each group was also performed. All methods were conducted on scaled data. First, a Student's t-test was performed in order to compare proteins between groups. Second, the LASSO (least absolute shrinkage and selection operator) method was applied. This is a regression technique that simultaneously performs variable selection and model coefficient modification. These models used group as the outcome and all 1310 proteins as the starting predictors. LASSO was then tuned to shrink unimportant coefficients to zero, leaving approximately the ten most important predictors of (or discriminators between) the groups. […]

[3] = format: in vivo, rats; conditions: for Findings: PO, Rat
Method: The tolerability of Formula 1 was evaluated in mice and rats. […] The compound was also tolerated following a single dose of 100 mg/kg in the mouse.

[4] = format: in vivo; conditions: naïve mice, 10 mg/kg IP
Method: Changes in responses of normal withdrawal threshold to heat and cold stimuli in naïve animals following drug treatment may reflect a CNS effect, as in the case of cannabinoids or opioids. Therefore, the response of the naïve mice post-Formula 1 administration at a dose of 10 mg/kg IP was assessed (Table 5).

[5] = system: Taxol-induced neuropathic pain; assay: Taxol-induced neuropathic pain in mice, oral route; format: in vivo; conditions: oral 50 mg/kg, study day 14, repeated daily dosing day 8 to day 14
[6] = format: in vitro ADME, mouse, rat, human
Method: Metabolic stability studies in mouse, rat and human liver microsomes were performed at a compound concentration of 1 μM.
A total of five metabolites were detected in all three species. […] Due to the similarity in the plasma stability of the compound in the mouse and the human plasma, and toxicology studies would preferably be performed in the mouse.

in vivo = conditions: mice; for half-life: read-out: terminal half-life (converted)
Method: Pharmacokinetic studies of MD-354 were performed in mice following 50 mg/kg oral and 5 mg/kg intravenous administration (FIG. 17).
The plasma concentration decreased in a multi-phasic manner to 0.76 ng/mL at 8 hours post-dose.

[7] = system: CCI-induced neuropathic pain; assay: CCI model in mice, IP route; format: in vivo; conditions: CCl model
Source text: IP route of administration was used for initial proof of principle studies with Formula 1. However, the chosen route of administration in most of the studies conducted with Formula 1 was either SC or PO. A brief protocol outline is provided in each section, for the purpose of understanding the results without elaborating on all the detailed procedures.
Table 7 summarizes the activity of Formula 1 in mice models of neuropathic pain following repeated daily administration using different routes of administration. […] Treatment with Formula 1 show activity without CNS effect.

[8] = oral, two additional sets of data, listed as 354

CC(C)(C)C(=O)O[C@@H]1[C@@H]2[C@H]3C[C@H](C[C@@H]1N3Cc1ccccn1)CN2C(=O)CC(F)(F)F (relative stereo) [Formula 1, (2S*,3S*,3aS*,6R*,7aR*)-1-(pyridin-2-ylmethyl)-4-(3,3,3-trifluoropropanoyl)octahydro-1H-2,6-methanopyrrolo[3,2-b]pyridin-3-yl pivalate]
fraction unbound (in vitro; human plasma): 0.08 | fraction unbound (in vitro; mouse plasma): 0.16 | body weight loss following Taxol dosing [1]: the rate of weight loss was reduced | duration of the analgesic activity ([1]; oral 50 mg/kg): at least 6 h | withdrawal force vs. vehicle 24 h post-dosing ([1]; oral 50 mg/kg): no significant difference | withdrawal force (von Frey) ([1]; single oral treatment 50 mg/kg): full reversal | activity in pain-related models [2]: showed activity in pain-related models | effect on blood pressure [2]: no effect on blood pressure | effect on bodyweight or food consumption [2]: no effect on bodyweight or food consumption | effect on specific CNS-related tests [2]: no effect on specific CNS-related tests | effect on swelling [2]: not effective on swelling | post-mortem finding [2]: no post-mortem finding | withdrawal threshold of naïve animals [2]: without affecting the withdrawal threshold of naïve animals | 14-3-3σ expression in the skin (14-3-3σ; hind plantar skin, study day 14, repeated dosing, vs. vehicle): significantly reduced | relative decrease in stratifin (14-3-3σ) (14-3-3σ; plasma, day 8 to day 14, daily treatment, Taxol dosed mice, vs. naïve animals): ~50% | Findings ([3]; 50 mg/kg, 5 days): NPF | Findings ([3]; 100 mg/kg, 1 day): NPF | adverse effects ([3]; rats, oral, once daily 50 mg/kg for 5 days): did not show any adverse effects | Response to cold stimuli (2 ± 1° C. ) [4]: 20.6 ± 11.39 s | Response to heat stimuli (50 ± 1° C. ) [4]: 12.87 ± 2.59 s | basal response to cold or heat stimuli [4]: not effective in altering the basal response | withdrawal force [5]: This activity was maintained | unique human metabolites [6]: No unique human metabolites were detected | total metabolites detected ([6]; in all three species): five | major metabolic pathways ([6]; mouse, rat and human liver microsomes): N-dealkylation and oxidation | plasma concentration at 8 hours post-dose (in vivo; intravenous 5 mg/kg): 6.74 ng/mL | plasma concentration at 8 hours post-dose (in vivo; oral 50 mg/kg): 0.76 ng/mL | time to peak plasma concentration (in vivo; oral 50 mg/kg): ≤ 5 min | time to peak plasma concentration (in vivo; oral, two additional sets of data): ≤ 5 min | oral bioavailability (in vivo; [8]): 14.7% | peak plasma concentration (in vivo; [8]): 3157 ng/mL and 3001 ng/mL | plasma concentration at 8 hours post-administration (in vivo; [8]): 8.4 ng/mL and 11.4 ng/mL | terminal half-life (in vivo; [8]): 75 min | half-life (in vivo; mouse, in vivo, iv, 5 mg/kg, intravenous 5 mg/kg, excluding the 8 h time point): 21 min | bioavailability (in vivo; mouse, in vivo, oral 50 mg/kg vs intravenous 5 mg/kg, read-out: absolute oral bioavailability): 10.5% | half-life (in vivo; mouse, in vivo, po, 50 mg/kg, oral 50 mg/kg): 51 min | bioavailability (in vivo; mouse, in vivo, po, oral, two additional sets of data, read-out: oral bioavailability): 14.1% | half-life (in vivo; mouse, in vivo, po, oral, two additional sets of data): 71.4 min | C0 (in vivo; mouse, in vivo, intravenous 5 mg/kg, read-out: initial plasma concentration (C0)): 7940 ng/mL | Vd (in vivo; mouse, in vivo, intravenous 5 mg/kg, read-out: steady-state volume of distribution (Vss)): 1.08 L/kg | clearance (in vivo; mouse, in vivo, intravenous 5 mg/kg, read-out: systemic plasma clearance (CLp)): 46.1 mL/min/kg | Cmax (in vivo; mouse, in vivo, oral 50 mg/kg, read-out: peak plasma concentration (Cmax)): 1930 ng/mL | Dose of maximum activity [7]: 30 mg/kg | Duration of activity at maximum effect [7]: >4 H | Peak of activity (T) [7]: 2 H | Level of activity (% of maximum effect-baseline) ([7]; repeated daily administration): 33%
